# Experimental data: patent US20220315554A1, “COMPOUNDS COMPRISING A […] LIGAND AND USE THEREOF” (priority 2019, published 2022)
# Numbered stars: 1 amine (or outer) side, 2 acyl side, 3 side chain; on linkers, the order of the positions; unused ones are H or OH. Bridge positions count the residues as written; N and C are the ends. Square brackets hold non-standard residues; d marks the D form. Peptide text beside a SMILES is read from it. * marks the point of attachment. TBMB(SCH2CH2NH-DOTA) = O=C(O)CN1CCN(CC(=O)O)CCN(CC(=O)NCCSCc2cc(C[*:1])cc(C[*:2])c2)CCN(CC(=O)O)CC1; X3 = NC(=O)[C@H](CCCCNC(=O)CN1CCN(CC(=O)O)CCN(CC(=O)O)CCN(CC(=O)O)CC1)NC(=O)CCC(=O)NCCCOCCOCCOCCCN*; NH(CH2)3NHDOTA = O=C(O)CN1CCN(CC(=O)O)CCN(CC(=O)NCCCN*)CCN(CC(=O)O)CC1; γGlu = O=C(O)[C@H](CCC(=O)[*:2])N[*:1]; mXylylene = c1cc(C[*:1])cc(C[*:2])c1; X51 = O=C(CN1CCC(N[*:1])CC1)[*:2]; 4Pal = N[C@@H](Cc1ccncc1)C(=O)O; X18 = NCCNCC(CNCCN)C(=O)*; Nle = CCCC[C@H](N)C(=O)O; Hexanoyl = CCCCCC(=O)*
# Key:
# [1] = molecular target: T1, FAP-expressing human WI-38 fibroblasts (Homo sapiens, UniProt Q12884); assay: Competitive FACS binding assay; details: pIC50 Category (FACS), competition with 3 nM Cy5-labeled compound, 4° C., 1 hour
# T1 construct: FAP-expressing human WI-38 fibroblasts (ECACC) were cultured in EMEM; host or cells: WI-38 human fibroblasts
# T1 sequence (Q12884 1-760): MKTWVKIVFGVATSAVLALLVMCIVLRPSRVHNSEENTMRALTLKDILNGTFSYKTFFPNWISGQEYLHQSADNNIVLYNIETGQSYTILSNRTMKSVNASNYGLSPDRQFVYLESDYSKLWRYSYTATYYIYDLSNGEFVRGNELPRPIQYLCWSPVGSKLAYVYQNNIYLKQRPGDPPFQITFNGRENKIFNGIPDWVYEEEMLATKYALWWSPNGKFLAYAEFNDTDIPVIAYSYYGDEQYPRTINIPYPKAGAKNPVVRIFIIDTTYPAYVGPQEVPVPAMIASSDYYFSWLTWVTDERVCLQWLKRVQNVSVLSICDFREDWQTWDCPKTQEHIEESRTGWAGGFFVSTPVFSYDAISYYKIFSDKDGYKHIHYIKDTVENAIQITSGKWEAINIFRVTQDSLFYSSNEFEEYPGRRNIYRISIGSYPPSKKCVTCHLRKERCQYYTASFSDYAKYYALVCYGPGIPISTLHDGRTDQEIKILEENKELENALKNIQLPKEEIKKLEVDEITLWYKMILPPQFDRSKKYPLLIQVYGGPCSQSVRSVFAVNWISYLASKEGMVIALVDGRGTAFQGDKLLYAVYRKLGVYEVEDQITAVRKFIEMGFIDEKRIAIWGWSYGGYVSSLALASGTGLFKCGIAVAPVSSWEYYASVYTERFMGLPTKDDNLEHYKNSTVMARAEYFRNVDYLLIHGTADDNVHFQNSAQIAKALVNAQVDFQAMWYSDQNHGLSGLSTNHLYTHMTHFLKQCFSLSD
# Experimental: Cells were analyzed in an Attune NxT flow cytometer. […]
# Human recombinant FAP = molecular target: T2, Human recombinant FAP (Homo sapiens, UniProt Q12884); assay: FRET-based FAP protease activity assay; format: biochemical; parameters: purchased R&D systems 3715-SE; details: pIC50 Category (Activity), FRET substrate, 37° C.
# T2 sequence (Q12884 1-760): T1 sequence (Q12884 1-760)
IC50 ([1]; WI-38 fibroblasts),IC50 (Human recombinant FAP; recombinant human FAP),SMILES,IC50 [1],IC50 (Human recombinant FAP)
0.01 to 0.0794 µM,0.1 to 0.794 µM,"CSCC[C@H](NC(C)=O)C(=O)N[C@H]1CSCc2cccc(c2)CSC[C@@H](C(=O)N[C@@H](CC(=O)O)C(=O)N[C@@H](Cc2c[nH]cn2)C(=O)N[C@@H](Cc2ccccc2)C(=O)N[C@@H](CCCNC(=N)N)C(=O)N[C@@H](CC(=O)O)C(N)=O)NC(=O)[C@H](Cc2ccccc2)NC(=O)[C@@H](CCC(=O)O)NC(=O)[C@H]([C@@H](C)O)NC(=O)[C@@H]2CCCN2C(=O)[C@@H]2CCCN2C1=O [3BP-3179, Ac-Met-[Cys(3MeBn)-Pro-Pro-Thr-glu-Phe-Cys]-Asp-His-Phe-Arg-Asp-NH2] (Ac-MCPPT[dE]FCDHFRD-NH2; linker 2-8 via mXylylene)",,
0.01 to 0.0794 µM,0.01 to 0.0794 µM,"CSCC[C@H](NC(C)=O)C(=O)N[C@H]1CSCc2cccc(c2)CSC[C@@H](C(=O)N[C@@H](CC(=O)O)C(=O)N[C@@H](Cc2c[nH]cn2)C(=O)N[C@@H](Cc2ccccc2)C(=O)N[C@@H](CCCNC(=N)N)C(=O)N[C@@H](CC(=O)O)C(N)=O)NC(=O)[C@H](Cc2ccccc2)NC(=O)[C@H](CCC(=O)O)NC(=O)[C@@H]([C@H](C)O)NC(=O)[C@@H]2CCCN2C(=O)[C@@H]2CCCN2C1=O [3BP-3178, Ac-Met-[Cys(3MeBn)-Pro-Pro-thr-Glu-Phe-Cys]-Asp-His-Phe-Arg-Asp-NH2] (Ac-MCPP[dT]EFCDHFRD-NH2; linker 2-8 via mXylylene)",,
> 1 µM,> 1 µM,"CCCCCC(=O)N[C@H]1CSCc2cccc(c2)CSC[C@@H](C(=O)N[C@@H](CC(=O)O)C(N)=O)NC(=O)[C@H](Cc2ccccc2)NC(=O)[C@H](CCC(=O)NCCCNC(=O)CN2CCN(CC(=O)O)CCN(CC(=O)O)CCN(CC(=O)O)CC2)NC(=O)[C@H]([C@@H](C)O)NC(=O)[C@@H]2CCCN2C(=O)[C@@H]2CCCN2C1=O [3BP-3472, Hex-[Cys(3MeBn)-Pro-Pro-Thr-Glu(NH-Apr-DOTA')-Phe-Cys]-Asp-NH2] (Hexanoyl-CPPTE(NH(CH2)3NHDOTA)FCD-NH2; linker 1-7 via mXylylene)",,
,,"CCCCCC(=O)N[C@H]1CSCc2cc(CSCCNC(=O)CCOCCOCCOCCOCCOCCOCCNC(=O)[C@H](CO)NC(=O)[C@H](CO)NC(=O)[C@H](CO)NC(=O)CS)cc(c2)CSC[C@@H](C(=O)O)NC(=O)[C@H](Cc2ccccc2)NC(=O)[C@H](CCC(N)=O)NC(=O)[C@H]([C@@H](C)O)NC(=O)[C@@H]2CCCN2C(=O)[C@@H]2CCCN2C1=O [3BP-4308, Hex-[Cys-(tMeBn(H-SAc-Ser-Ser-Ser-Ttds-AET))-Pro-Pro-Thr-Gln-Phe-Cys]-OH]",0.01 to 0.0794 µM,0.01 to 0.0794 µM
< 0.01 µM,< 0.01 µM,"CCCCCC(=O)N[C@H]1CSCc2cccc(c2)CSC[C@@H](C(=O)N[C@@H](CC(=O)O)C(=O)N[C@@H](Cc2c[nH]cn2)C(=O)N[C@@H](Cc2ccncc2)C(=O)N[C@H](CCCNC(=N)N)C(=O)NCCCOCCOCCOCCCNC(=O)CCC(=O)N[C@@H](CCCCNC(=O)CN2CCN(CC(=O)O)CCN(CC(=O)O)CCN(CC(=O)O)CC2)C(N)=O)NC(=O)[C@H](Cc2ccccc2)NC(=O)[C@H](CCC(=O)O)NC(=O)[C@H]([C@@H](C)O)NC(=O)[C@@H]2CCCN2C(=O)[C@@H]2CCCN2C1=O [3BP-3277, Hex-[Cys(3MeBn)-Pro-Pro-Thr-Glu-Phe-Cys]-Asp-His-Ppa-arg-Ttds-Lys(DOTA)-NH2] (Hexanoyl-CPPTEFCDH[4Pal][dR]-X3; linker 1-7 via mXylylene)",,
,,"CCCCCC(=O)N[C@H]1CSCc2cc(CSCCNC(=O)CCC(=O)NCCCOCCOCCOCCCNC(=O)c3ccc(NN)nc3)cc(c2)CSC[C@@H](C(=O)O)NC(=O)[C@H](Cc2ccccc2)NC(=O)[C@H](CCC(N)=O)NC(=O)[C@H]([C@@H](C)O)NC(=O)[C@@H]2CCCN2C(=O)[C@@H]2CCCN2C1=O [3BP-4376, Hex-[Cys-(tMeBn(H-HYNIC-Ttds-AET))-Pro-Pro-Thr-Gln-Phe-Cys]-OH]",< 0.01 µM,< 0.01 µM
,,"CCCCCC(=O)N[C@H]1CSCc2cc(CSCCNC(=O)CN3CCN(CC(=O)O)CCN(CC(=O)O)CCN(CC(=O)O)CC3)cc(c2)CSC[C@@H](C(=O)N[C@@H](CC(=O)O)C(=O)NCCCOCCOCCOCCCNC(=O)CCC(=O)N[C@@H](CCCCNC(=O)CN2CCN(CC(=O)O)CCN(CC(=O)O)CCN(CC(=O)O)CC2)C(N)=O)NC(=O)[C@H](Cc2ccccc2)NC(=O)[C@H](CCC(N)=O)NC(=O)[C@H]([C@@H](C)O)NC(=O)[C@@H]2CCCN2C(=O)[C@@H]2CCCN2C1=O [3BP-4391, Hex-[Cys(tMeBn(DOTA-AET))-Pro-Pro-Thr-Gln-Phe-Cys]-Asp-Ttds-Lys(DOTA)-NH2] (Hexanoyl-CPPTQFCD-X3; linker 1-7 via TBMB(SCH2CH2NH-DOTA))",< 0.01 µM,< 0.01 µM
< 0.01 µM,< 0.01 µM,"CCCCCC(=O)N[C@H]1CSCc2cccc(c2)CSC[C@@H](C(=O)N[C@@H](CC(=O)O)C(=O)N[C@@H](CCCNC(=N)N)C(=O)O)NC(=O)[C@H](Cc2ccccc2)NC(=O)[C@H](CCC(=O)O)NC(=O)[C@H]([C@@H](C)O)NC(=O)[C@@H]2CCCN2C(=O)[C@@H]2CCCN2C1=O [3BP-3299, Hex-[Cys(3MeBn)-Pro-Pro-Thr-Glu-Phe-Cys]-Asp-Arg-NH2] (Hexanoyl-CPPTEFCDR-OH; linker 1-7 via mXylylene)",,
,,"CCCCCC(=O)N[C@H]1CSCc2cc(CSCCNC(=O)CCCCC3(N(C)CC(=O)O)CN(CC(=O)O)CCN(CC(=O)O)C3)cc(c2)CSC[C@@H](C(=O)O)NC(=O)[C@H](Cc2ccccc2)NC(=O)[C@H](CCC(N)=O)NC(=O)[C@H]([C@@H](C)O)NC(=O)[C@@H]2CCCN2C(=O)[C@@H]2CCCN2C1=O [3BP-4382, Hex-[Cys-(tMeBn(DATA-AET))-Pro-Pro-Thr-Gln-Phe-Cys]-OH]",0.01 to 0.0794 µM,0.01 to 0.0794 µM
,,"CCCCCC(=O)N[C@H]1CSCc2cc(cc(CN3CCN(C(=O)COCCOCCNC(=O)C(CNCCN)CNCCN)CC3)c2)CSC[C@@H](C(=O)O)NC(=O)[C@H](Cc2ccccc2)NC(=O)[C@H](CCC(N)=O)NC(=O)[C@H]([C@@H](C)O)NC(=O)[C@@H]2CCCN2C(=O)[C@@H]2CCCN2C1=O [3BP-4169, Hex-[Cys-(tMeBn(N4Ac-O2Oc-PP))-Pro-Pro-Thr-Gln-Phe-Cys]-OH]",0.01 to 0.0794 µM,< 0.01 µM
,,"CCCC[C@H](NC(=O)CN1CCC(NC(=O)C(CNCCN)CNCCN)CC1)C(=O)N[C@H]1CSCc2cccc(c2)CSC[C@@H](C(=O)O)NC(=O)[C@H](Cc2ccccc2)NC(=O)[C@H](CCC(=O)O)NC(=O)[C@H]([C@@H](C)O)NC(=O)[C@@H]2CCCN2C(=O)[C@@H]2CCCN2C1=O [3BP-4220, N4Ac-APAc-Nle-[Cys-(3MeBn)-Pro-Pro-Thr-Glu-Phe-Cys]-OH] (X18-[X51][Nle]CPPTEFC-OH; linker 3-9 via mXylylene)",> 1 µM,> 1 µM
,,"CCCC[C@H](NC(=O)CC[C@H](NC(=O)C(CNCCN)CNCCN)C(=O)O)C(=O)N[C@H]1CSCc2cccc(c2)CSC[C@@H](C(=O)O)NC(=O)[C@H](Cc2ccccc2)NC(=O)[C@H](CCC(=O)O)NC(=O)[C@H]([C@@H](C)O)NC(=O)[C@@H]2CCCN2C(=O)[C@@H]2CCCN2C1=O [3BP-4230, N4Ac-gGlu-Nle-[Cys-(3MeBn)-Pro-Pro-Thr-Glu-Phe-Cys]-OH] ({X18-γGlu}-[Nle]CPPTEFC-OH; linker 2-8 via mXylylene)",> 1 µM,> 1 µM
,,"CCCCCC(=O)N[C@H]1CSCc2cc(CSCCNC(=O)[C@H](CS)NC(=O)[C@H](CC(=O)O)NC(=O)[C@@H](N)CC(=O)O)cc(c2)CSC[C@@H](C(=O)O)NC(=O)[C@H](Cc2ccccc2)NC(=O)[C@H](CCC(N)=O)NC(=O)[C@H]([C@@H](C)O)NC(=O)[C@@H]2CCCN2C(=O)[C@@H]2CCCN2C1=O [3BP-4303, Hex-[Cys-(tMeBn(H-Asp-Asp-Cys-AET))-Pro-Pro-Thr-Gln-Phe-Cys]-OH]",0.1 to 0.794 µM,0.01 to 0.0794 µM
,,"CCCCCC(=O)N[C@H]1CSCc2cc(CSCCNC(=O)CN3CCN4CCN5CCN(CC3)CC(=O)[O][Lu]([O]C(=O)C4)[O]C(=O)C5)cc(c2)CSC[C@@H](C(=O)N[C@@H](CC(=O)O)C(=O)NCCCC(=O)NC(CCCNC(=N)N)C(=O)NCCCOCCOCCOCCCNC(=O)CCC(=O)NC(CCCCNC(=O)c2ccc(-c3c4ccc(=N)c(S(=O)(=O)O)c-4oc4c(S(=O)(=O)O)c(N)ccc34)c(C(=O)O)c2)C(N)=O)NC[C@H](Cc2ccccc2)NC(=O)[C@H](CCC(N)=O)NC(=O)C([C@@H](C)O)NC(=O)[C@@H]2CCCN2C(=O)[C@@H]2CCCC2C1=O (stereo partly drawn) [3BP-4372, Hex-[Cys(tMeBn(LuDOTA-AET))-Pro-Pro-Thr-Gln-Phe-Cys]-Asp-Gab-Arg-Ttds-Lys(AF488)-NH2]",< 0.01 µM,< 0.01 µM
